Assay results published in article PMC5444726, “A CD44-specific peptide, RP-1, exhibits capacities of assisting diagnosis and predicting prognosis of gastric cancer” (Oncotarget, 2017).

What was measured:
[1] = system: CD44 protein; details: peptide screened from 12-mer phage peptide library; ref [25]; cited from earlier work
Source text: The purpose of the current study was to validate the specificity and affinity of RP-1 in both in vitro and in vivo experiment ...

[2] = system: CD44 in gastric carcinoma and surrounding tissues; assay: Immunohistochemistry of human gastric cancer tissue microarray; details: for RP-1 staining negative, number (%) / RP-1 staining positive, number (%): % of all 100 cases
Description: Prepared paraffin-embedded sections were deparaffinized, rehydrated, retrieved and blocked with 5% BSA (w/v) in PBS at ambient temperature for 30 min. Then, sections were incubated with 100 μM biotin labeled RP-1 peptide or human specific rabbit anti-CD44 monoclonal antibody (1:200, ZSGB-BIO, Beijing, China) overnight at 4°C. After PBS washing for three times, sections were subsequently incubated with streptavidin-HRP (1:500, Proteintech, Wuhan, China) and goat anti-rabbit secondary antibody (1:300, BOSTER, Wuhan, China). Diaminobenzidine (DAB, ZSGB-BIO, Beijing, China) was used as a chromogen. Finally, the sections were counterstained with hematoxylin and mounted with neutral balsam.
Two TMA slides (Shanghai Outdo Biotech Co LTD, Shanghai, China), each containing 100 GC tissues samples (including 66 adenocarcinoma, 19 tubular adenocarcinoma, 8 mucinous adenocarcinoma, 2 undifferentiated carcinoma and 5 signet-ring cell carcinoma tissue samples) and 80 surrounding tissue samples from 100 patients, were used to evaluate the diagnostic and prognostic effects of RP-1. Samples were obtained from treatment-naive patients with written informed consent signed and dated. Age of the 100 patients with GC ranged from 32 to 81 years (mean, 64.4 years). Their clinicopathological characteristics were described in Table 2. The TNM stage of all patients with GC was assessed according to the American Joint Commission for Cancer (AJCC 7th edition) and tumors were histologically classified according to the criteria described by the World Health Organization (2000). The Medical Ethics Committee of Taizhou Hospital of Zhejiang province reviewed and approved all studies.
We performed immunohistochemical staining of TMA slides with RP-1 and human specific anti-CD44 monoclonal antibody by following the procedure described in the section Immunohistochemistry. The immunoreactivity was assessed with the immunohistochemistry score (HSCORE) system, which evaluated the staining intensity and percentages of positive cells stained at a specific magnitude of intensity. The HSCORE was calculated using the equation HSCORE=∑Pi(i) (i = 0, 1, 2, 3, Pi = 0–100%), in which i was the staining intensity (0, no staining; 1, weak staining; 2, moderate staining; 3, strong staining) and Pi was the percentage of positive cells on a scale of 0% to 100%. Positive cell count was assessed in 5 randomly selected fields of vision with a microscope (400×). All immunohistochemical evaluations were conducted by two independent pathologists […].
Receiver–operator curve (ROC) analysis was performed to determine the cut-off score for both RP-1 peptide and anti-CD44 monoclonal antibody. The score closest to the point (0.0, 1.0) with maximum sensitivity and specificity was identified as the cut-off score. Samples with a HSCORE of cut-off value or below were considered as negative staining, otherwise they were considered as positive staining.
Statistical analysis was conducted with SPSS software, version 21.0 (IBM, New York, USA). Kappa values were used to determine the consistency of histological and immunohistochemical results between RP-1 peptide and anti-CD44 antibody. Independent sample t-test was performed to decide existence of statistical difference in fluorescent intensity values between tumor and other normal organs. The ROC analysis was carried out to decide the cut-off value for RP-1 and anti-CD44 antibody. The area under the curve (AUC) was calculated to compare the diagnostic accuracy of RP-1 and anti-CD44 antibody. χ^2-test was used to assess the association between each clinicopathological variable and RP-1 staining intensity, while log-rank test was used for assessing the association between survival and each clinicopathological variable. Multiple Cox proportional hazards regression was performed to verify if RP-1 positivity can be used as an independent risk factor for prognosis of GC. […]

[3] = adenocarcinoma, 66 cases, P = 0.182
[4] = age > 64.4, 46 cases, P = 0.036
[5] = age ≤ 64.4, 54 cases, P = 0.036
[6] = all antibody results, total 100
[7] = clinicopathological stage I, 10 cases, P = 0.526
[8] = clinicopathological stage II, 32 cases, P = 0.526
[9] = clinicopathological stage III, 50 cases, P = 0.526
[10] = clinicopathological stage IV, 8 cases, P = 0.526
[11] = moderately differentiated, 69 cases, P = 0.066
[12] = mucinous adenocarcinoma, 8 cases, P = 0.182
[13] = poorly differentiated, 5 cases, P = 0.066
[14] = signet ring cell carcinoma, 4 cases, P = 0.182
[15] = tubular adenocarcinoma, 19 cases, P = 0.182
[16] = undifferentiated carcinoma, 3 cases, P = 0.182
[17] = well differentiated, 26 cases, P = 0.066

WHPWSYLWTQQA [RP-1, CD44-specific peptide … screened from a 12-mer phage peptide library]
binding to CD44 protein [1]: can specifically bind to CD44 protein
RP-1 staining negative, number (%) [2, 3]: 16 (16.0)
RP-1 staining positive, number (%) [2, 3]: 50 (50.0)
RP-1 staining negative, number (%) [2, 4]: 12 (12.0)
RP-1 staining positive, number (%) [2, 4]: 34 (34.0)
RP-1 staining negative, number (%) [2, 5]: 15 (15.0)
RP-1 staining positive, number (%) [2, 5]: 39 (39.0)
number of pericarcinomatous tissues RP-1 negative ([2]; all antibody results, total 80): 70
number of pericarcinomatous tissues RP-1 positive ([2]; all antibody results, total 80): 10
number of gastric carcinoma tissues RP-1 negative [2, 6]: 27
number of gastric carcinoma tissues RP-1 positive [2, 6]: 73
number of gastric carcinoma tissues RP-1 negative ([2]; antibody negative): 18
number of gastric carcinoma tissues RP-1 positive ([2]; antibody negative): 18
number of pericarcinomatous tissues RP-1 negative ([2]; antibody negative): 56
number of pericarcinomatous tissues RP-1 positive ([2]; antibody negative): 9
number of gastric carcinoma tissues RP-1 negative ([2]; antibody positive): 9
number of gastric carcinoma tissues RP-1 positive ([2]; antibody positive): 55
number of pericarcinomatous tissues RP-1 negative ([2]; antibody positive): 14
number of pericarcinomatous tissues RP-1 positive ([2]; antibody positive): 1
RP-1 staining negative, number (%) [2, 7]: 4 (4.0)
RP-1 staining positive, number (%) [2, 7]: 6 (6.0)
RP-1 staining negative, number (%) [2, 8]: 10 (10.0)
RP-1 staining positive, number (%) [2, 8]: 22 (22.0)
RP-1 staining negative, number (%) [2, 9]: 12 (12.0)
RP-1 staining positive, number (%) [2, 9]: 38 (38.0)
RP-1 staining negative, number (%) [2, 10]: 1 (1.0)
RP-1 staining positive, number (%) [2, 10]: 7 (7.0)
RP-1 staining negative, number (%) ([2]; died, 69 cases, P < 0.001): 11 (11.0)
RP-1 staining positive, number (%) ([2]; died, 69 cases, P < 0.001): 58 (58.0)
RP-1 staining negative, number (%) ([2]; female, 36 cases, P = 0.895): 10 (10.0)
RP-1 staining positive, number (%) ([2]; female, 36 cases, P = 0.895): 26 (26.0)
RP-1 staining negative, number (%) ([2]; male, 64 cases, P = 0.895): 17 (17.0)
RP-1 staining positive, number (%) ([2]; male, 64 cases, P = 0.895): 47 (47.0)
RP-1 staining negative, number (%) [2, 11]: 21 (21.0)
RP-1 staining positive, number (%) [2, 11]: 53 (53.0)
RP-1 staining negative, number (%) [2, 12]: 5 (5.0)
RP-1 staining positive, number (%) [2, 12]: 3 (3.0)
RP-1 staining negative, number (%) ([2]; pM0, 91 cases, P = 0.260): 26 (26.0)
RP-1 staining positive, number (%) ([2]; pM0, 91 cases, P = 0.260): 65 (65.0)
RP-1 staining negative, number (%) ([2]; pM1, 9 cases, P = 0.260): 1 (1.0)
RP-1 staining positive, number (%) ([2]; pM1, 9 cases, P = 0.260): 8 (8.0)
RP-1 staining negative, number (%) ([2]; pN0, 27 cases, P = 0.101): 6 (6.0)
RP-1 staining positive, number (%) ([2]; pN0, 27 cases, P = 0.101): 21 (21.0)
RP-1 staining negative, number (%) ([2]; pN1, 15 cases, P = 0.101): 8 (8.0)
RP-1 staining positive, number (%) ([2]; pN1, 15 cases, P = 0.101): 7 (7.0)
RP-1 staining negative, number (%) ([2]; pN2, 28 cases, P = 0.101): 6 (6.0)
RP-1 staining positive, number (%) ([2]; pN2, 28 cases, P = 0.101): 22 (22.0)
RP-1 staining negative, number (%) ([2]; pN3, 30 cases, P = 0.101): 7 (7.0)
RP-1 staining positive, number (%) ([2]; pN3, 30 cases, P = 0.101): 23 (23.0)
RP-1 staining negative, number (%) ([2]; pT1, 8 cases, P = 0.399): 3 (3.0)
RP-1 staining positive, number (%) ([2]; pT1, 8 cases, P = 0.399): 5 (5.0)
RP-1 staining negative, number (%) ([2]; pT2, 9 cases, P = 0.399): 1 (1.0)
RP-1 staining positive, number (%) ([2]; pT2, 9 cases, P = 0.399): 6 (6.0)
RP-1 staining negative, number (%) ([2]; pT3, 66 cases, P = 0.399): 20 (20.0)
RP-1 staining positive, number (%) ([2]; pT3, 66 cases, P = 0.399): 45 (45.0)
RP-1 staining negative, number (%) ([2]; pT4, 17 cases, P = 0.399): 3 (3.0)
RP-1 staining positive, number (%) ([2]; pT4, 17 cases, P = 0.399): 17 (17.0)
RP-1 staining negative, number (%) [2, 13]: 0 (0.0)
RP-1 staining positive, number (%) [2, 13]: 11 (11.0)
RP-1 staining negative, number (%) [2, 14]: 1 (1.0)
RP-1 staining positive, number (%) [2, 14]: 4 (4.0)
RP-1 staining negative, number (%) ([2]; survived, 31 cases, P < 0.001): 16 (16.0)
RP-1 staining positive, number (%) ([2]; survived, 31 cases, P < 0.001): 15 (15.0)
HSCORE of GC samples versus surrounding tissue ([2]; t-test, P < 0.001): significantly higher
cell types stained positive ([2]; tissue microarray, gastric carcinoma and surrounding tissue): positive only in tumor cells
RP-1 staining negative, number (%) [2, 15]: 5 (5.0)
RP-1 staining positive, number (%) [2, 15]: 14 (14.0)
RP-1 staining negative, number (%) [2, 16]: 0 (0.0)
RP-1 staining positive, number (%) [2, 16]: 2 (2.0)
RP-1 staining negative, number (%) [2, 17]: 6 (6.0)
RP-1 staining positive, number (%) [2, 17]: 9 (9.0)
